Test results taken from patent US20240417812A1, “METHODS FOR TREATING SOLID CANCER PATIENTS WITH CLONAL HEMATOPOIESIS OF INDETERMINATE POTENTIAL” (Olatec Therapeutics, Inc., priority 2022, published 2024).
Where two headings read alike, the source gives them in different places.

Tests used:
[1] = humans treated orally at 1000 mg/day; cited from earlier work
E0771 cells [2] = assay: E0771 orthotopic breast tumor model in germline Tet2+/+ or Tet2+/− mice; format: in vivo, mouse
Procedure: 6-8 week old B6(Cg)-Tet2tm1.2Rao/J (JAX) female mice heterozygous for Tet2 allele or wild-type for Tet2 allele were purchased for Jackson Laboratories.
The murine metastatic mammary cancer cell line E0771 was purchased from ATCC. E0771 cells were cultured in RPMI (Corning) supplemented with 10% FBS, 1% HEPES, 100 units/ml penicillin and 0.1 mg/ml streptomycin. Cells were maintained in a humidified 5% CO2 atmosphere at 37° C.
(§1) 2×10^5 E0771 cells were mixed with matrigel and implanted orthotopically into the mammary fat pad (day 0). Mice treated with dapansutrile were fed ad libitum with food pellets containing 7.5 g dapansutrile/kg food, which started on day 3 after E0771 cell implantation and continued until being sacrificed. Mice were sacrificed on day 18 for the germline mouse model and day 15 for the chimeric mouse model. Mice typically consume about 4 g of food per day, resulting in an approximate daily dose of 0 mg/kg/day for control groups and 1,000 mg/kg/day for the treatment groups. […] Wild-type and Tet2+/− mice were fed with control food pellets without dapansutrile. Mice were sacrificed following 15-18 days after E0771 cell implantation. Tumor volumes were assessed using ½(L×W×H) measured via digital caliper.
Myeloid cells are the predominant source of tumor-promoting IL-1β in the breast cancer TME, and TET2 mutations have been reported in tumor-infiltrating leukocytes. […] We orthotopically implanted the murine metastatic luminal B breast cancer cell line, E0771, into Tet2+/+ (WT) or Tet2+/− germline mice. Three days after implantation, mice were placed on a control chow diet or a nutritionally identical diet enriched with OLT1177® (dapansutrile) for 15 days. Mice were sacrificed following […] after E0771 cell implantation.

IL-1β = IL-1β production from bone marrow adherent cells isolated from tumor-bearing mice (ELISA); format: cell-based, mouse; conditions: adherent bone marrow cells from tumor-bearing Tet2+/− mice, LPS stimulated, dapansutrile treated vs untreated; p<0.05
Procedure: Bone marrow cells from tumor-bearing mice was collected and filtered through […] cell strainer. 3×10^6 cells were plated in 24-well plates and incubated overnight. The next day to non-adherent fraction was removed and the adherent fraction was treated with 10 μM dapansutrile and were cultured in RPMI supplemented with 10% FBS, 100 units/ml penicillin and 0.1 mg/ml streptomycin for 24 hours. Cytokines were measured in cell culture supernatants using DuoSet ELISA (R&D Systems).
Bone marrow cells were collected from the four long bones as described above and filtered through a […] cell strainer prior to counting. 1×10^6 cells were plated in flat bottom tissue culture plates and incubated overnight. The next day the non-adherent fraction was removed and the adherent fraction was used for downstream experiments.
For western blot and cytokine analysis, adherent bone marrow cells were stimulated±LPS (100 ng/mL) and cultured for an additional 24 hours. Cells were cultured in RPMI supplemented with 10% FBS, 100 units/ml penicillin and 0.1 mg/ml streptomycin. […] Cytokines were measured in cell culture supernatants using DuoSet ELISA (R&D Systems).
Next, we assessed the inflammatory potential of myeloid cells from tumor-bearing mice. […]

[3] = tested on: chemokine C-C motif ligand 2 (CCL2); assay: Plasma CCL2 of BM chimera mice; format: in vivo, mouse; conditions: Tet2+/− chimeras, dapansutrile diet vs standard diet, p<0.05
Excerpt: (§2) FIGS. 5A-5B show plasma cytokine production of chemokine C-C motif ligand 2 (CCL2, 5A) and keratinocyte chemoattractant (KC, 5B) of BM chimera mice from FIG. 2

NLRP3 inflammasome = NLRP3 inflammasome (Homo sapiens, UniProt Q96P20); conditions: cited from earlier work
[4] = orally administered to healthy subjects; cited from earlier work
[5] = tested on: keratinocyte chemoattractant (KC); assay: Plasma KC of BM chimera mice; format: in vivo, mouse; conditions: Tet2+/− chimeras, dapansutrile diet vs standard diet, p<0.05
Excerpt: as §2

[6] = tested on: tumor-infiltrating granulocytes; assay: Flow cytometry of tumor-infiltrating granulocytes of BM chimera mice; format: in vivo, mouse; conditions: Tet2+/− chimeras
Procedure: After 6 weeks of engraftment, mice were given breast tumors via orthotopic transplantation of breast cancer cells. Tumor progression was assessed by measuring the volume of the tumor in the mouse using calipers. After 15 days, mice were sacrificed, and their bone marrow, peripheral blood, and tumors were harvested for flow cytometry analysis to determine the levels of immune cell populations and relative contribution from WT or Tet2+/+ or Tet2+/− bone marrow cells.
Bone marrow isolation and cell staining was performed on ice in staining medium (SM; Hanks Balanced Salt Solution [HBSS 1×, Corning 1-022-CM] supplemented with heat inactivated fetal bovine serum [FBS, VWR 97068-05] to a final concentration of 2%). Femurs and tibiae were flushed with 3 mL of SM and followed by RBC lysis with ACK lysis buffer. Peripheral blood was isolated via the heart and placed into RBC lysis buffer. After RBC lysis cells were incubated on ice for 30 minutes with antibody cocktails prior to being washed and resuspended in SM containing propidium iodide to stain dead cells. Flow cytometry was performed on the BD FACSCelesta.

Tet2+/− clones = assay: Expansion of Tet2+/− clones in tumor-bearing BM chimera mice; format: in vivo, mouse; conditions: dapansutrile diet
Excerpt: To create a mouse model that more closely resembles human CHIP, we generated mice with chimeric bone marrow (BM) that was 75% wild type (WT), and 25% Tet2 […] (Tet2+/+) or heterozygous (Tet2+/−). To identify the contribution of WT or Tet2+/− cells to hematopoiesis, we used the pan hematopoietic marker CD45. We used two congenic mouse strains with variants in CD45 C57BL/6 and Boy/J (CD45.2 and CD45.1, respectively), which can be identified with fluorescently labeled antibodies using flow cytometry analysis. To generate the chimeric BM, we lethally irradiated Boy/J recipient mice (CD45.1) with an 11gy split-dose administered three hours apart. Irradiated recipient mice were then transplanted with 2 million unfractionated BM cells that were a mix of 75% CD45.1 WT and 25% CD45.2
Tet2+/+ or Tet2+/−. Cells were given via a retro-orbital (RO) sinus injection. To monitor the engraftment of donor-derived cells, mice were bled every four weeks via the submandibular vein. […]
(§3) After 6 weeks of engraftment, mice were given breast tumors via orthotopic transplantation of breast cancer cells. Tumor progression was assessed by measuring the volume of the tumor in the mouse using calipers. […]
In this example, we first assessed the extent to which Tet2-deficient myeloid cells infiltrated into peripheral blood (FIG. 3A) and in the tumor (FIG. 3B).

E0771 cells [7] = assay: E0771 orthotopic breast tumor model in Tet2+/+ or Tet2+/− bone marrow chimeric mice; format: in vivo, mouse
Excerpt: as §1
To create a mouse model that more closely resembles human CHIP, we generated mice with chimeric bone marrow (BM) that was 75% wild type (WT), and 25% Tet2 […] (Tet2+/+) or heterozygous (Tet2+/−). To identify the contribution of WT or Tet2+/− cells to hematopoiesis, we used the pan hematopoietic marker CD45. […]
as §3

[8] = Blood level in mice fed dapansutrile food pellets; format: in vivo, mouse; conditions: 7.5 g/kg of dapansutrile in food (approx. 1,000 mg/kg/day)
Excerpt: as §1

NLRP3 inflammasome, sequence (Q96P20 whole entry): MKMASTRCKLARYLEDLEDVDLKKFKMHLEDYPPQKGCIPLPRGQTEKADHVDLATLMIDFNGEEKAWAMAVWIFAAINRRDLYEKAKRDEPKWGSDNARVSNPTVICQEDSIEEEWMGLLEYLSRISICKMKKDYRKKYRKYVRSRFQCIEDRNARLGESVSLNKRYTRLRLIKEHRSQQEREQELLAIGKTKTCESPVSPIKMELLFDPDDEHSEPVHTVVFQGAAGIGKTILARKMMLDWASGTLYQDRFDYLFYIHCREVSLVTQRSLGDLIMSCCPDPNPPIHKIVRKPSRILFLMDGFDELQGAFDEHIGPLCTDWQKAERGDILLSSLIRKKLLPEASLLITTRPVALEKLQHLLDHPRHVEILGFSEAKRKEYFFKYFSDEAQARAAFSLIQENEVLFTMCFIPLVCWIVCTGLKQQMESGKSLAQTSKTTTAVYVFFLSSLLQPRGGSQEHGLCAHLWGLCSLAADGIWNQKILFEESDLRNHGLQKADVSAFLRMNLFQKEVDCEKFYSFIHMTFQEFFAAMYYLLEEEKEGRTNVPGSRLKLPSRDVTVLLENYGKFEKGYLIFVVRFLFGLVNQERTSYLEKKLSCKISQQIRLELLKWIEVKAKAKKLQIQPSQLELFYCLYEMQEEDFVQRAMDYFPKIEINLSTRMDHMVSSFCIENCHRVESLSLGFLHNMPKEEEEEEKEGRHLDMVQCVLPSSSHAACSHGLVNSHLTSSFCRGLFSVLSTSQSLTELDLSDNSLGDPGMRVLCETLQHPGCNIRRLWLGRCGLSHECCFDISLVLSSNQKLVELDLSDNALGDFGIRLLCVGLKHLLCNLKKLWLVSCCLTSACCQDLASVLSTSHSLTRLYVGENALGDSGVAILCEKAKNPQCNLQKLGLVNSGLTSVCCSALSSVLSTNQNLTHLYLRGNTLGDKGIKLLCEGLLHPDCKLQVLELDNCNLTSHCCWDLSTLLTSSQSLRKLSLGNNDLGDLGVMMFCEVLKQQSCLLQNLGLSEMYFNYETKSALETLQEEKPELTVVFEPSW

CS(=O)(=O)CCC#N [dapansutrile, 3-methanesulfonyl-propionitrile]
blood level [1]: 40000 ng/mL | tumor growth (E0771 cells [2]; Tet2+/+ (WT) germline mice on dapansutrile vs standard diet, p<0.05): significantly decreased | tumor growth, difference between genotypes (E0771 cells [2]; Tet2+/+ (WT) vs Tet2+/− mice, both on dapansutrile diet): No changes in tumor growth | tumor growth reduction (E0771 cells [2]; Tet2+/− germline mice, dapansutrile diet (7.5 g/kg food, from day 3) vs Tet2+/− on standard diet, p<0.01): 68% | IL-1β secretion (IL-1β): significantly less | circulating CCL2 [3]: significantly decreased | NLRP3 inflammasome inhibition (NLRP3 inflammasome): selectively inhibit | safety [4]: safe | circulating KC [5]: significantly decreased | tumor-infiltrating granulocytes (frequency) ([6]; dapansutrile diet vs standard diet, p<0.05): significantly decreased | MHC-II expression (gMFI) on tumor-infiltrating granulocytes ([6]; dapansutrile diet, p<0.001): rescued | expansion of Tet2+/− clones (Tet2+/− clones): able to reduce | tumor growth (E0771 cells [7]; Tet2+/+ chimeric mice, dapansutrile diet, to baseline level equivalent to dapansutrile-treated Tet2+/− chimeric mice): suppressed tumor growth | tumor growth (E0771 cells [7]; Tet2+/− chimeric mice, dapansutrile diet from day 3 vs control chow, p<0.001): suppressed | blood level [8]: ~40000 ng/mL
